Results from paper PMC8395214, “Promising Anticancer Activity of [Bis(1,8-quinolato)palladium (II)] Alone and in Combination” (International Journal of Molecular Sciences, 2021).
Where two headings read alike, the source gives them in different places.

Experiments:
A2780 cell line [1] = assay: Binary sequenced combination study (MTT, CI and dose-effect parameters); type: cell-based, human; conditions: single drug; for IC50: read-out: Dm (median effect dose)
Protocol: (§1) Binary sequenced combinations of NH3 with curcumin and EGCG have been investigated in both ovarian and colorectal cancer models using four different cell lines.
(§2) The method for determining single drug cytotoxicity and activity of drugs in sequenced combination was the same as described in our previous articles. […] The plates were then left to incubate under normal growth conditions for 72 h. […] Four hours after the addition of the MTT solution (50 µL per well of 1 mg/mL MTT solution), the purple formazan crystals produced from the reduction of MTT were dissolved in 150 µL DMSO and read with a iMarkTM Bio-Rad Microplate Reader Version 1.04.02.E. The IC50 values were obtained from the results of at least three independent experiments. Proteomic study was conducted following same procedure mentioned before in our published research article.

A2780^cisR cell line [2] = assay: as above; type: cell-based, human; conditions: single drug; for IC50: read-out: Dm (median effect dose)
Protocol: as §1, §2

Caco-2 cell line = assay: as above; type: cell-based, human; conditions: single drug; for IC50: read-out: Dm (median effect dose)
Protocol: as §1, §2

HT-29 cell line [3] = assay: as above; type: cell-based, human; conditions: single drug; for IC50: read-out: Dm (median effect dose)
Protocol: as §1, §2

[4] = system: Raji (lymphoma), Hela (cervical) and PC-3 (prostate) cancer cell line; conditions: cited from earlier work
A2780^ZDO473R = assay: MTT reduction assay, cytotoxicity; type: cell-based, human
Protocol: (§3) Dose response curves have been presented in Supplementary File (Figures S1–S5).
as §2

A2780^cisR = assay: MTT reduction assay, cytotoxicity; type: cell-based, human; conditions: A2780^cisR cell line
Protocol: as §3, §2

A2780 = assay: MTT reduction assay, cytotoxicity; type: cell-based, human; conditions: parent ovarian A2780 cell line
Protocol: as §3, §2

Hela = assay: MTT reduction assay, cytotoxicity; type: cell-based, human; conditions: Hela cell line
Protocol: as §3, §2

MCF-7 = assay: MTT reduction assay, cytotoxicity; type: cell-based, human; conditions: MCF-7 cell line
Protocol: as §3, §2

A2780 cell line [5] = assay: Proteomic study, protein expression after treatment with NH3 alone; type: cell-based, human
Description: (§4) The study has provided information on the underlying mechanism of antitumor activity of NH3 alone in different cell lines. Total of 19 (seven from A2780 cell line, nine from A2780^cisR cell line and three from HT-29 cell line) proteins have been identified from the present study that underwent significant changes in expression following treatment with NH3 alone. Change in folds of the respective proteins after treatment with NH3 alone is shown in Table 2 (A2780 cell line), Table 3 (A2780^cisR cell line) and Table 4 (HT-29 cell line).
as §2

HT-29 cell line [6] = assay: as above; type: cell-based, human
Description: as §4, §2

A2780^cisR cell line [7] = type: cell-based, human
Description: as §4, §2

[8] = system: Swiss-albino adult male mice; assay: Twenty days in vivo toxicity study; conditions: for Survival of mice till the end of the experiment: subcutaneous, twenty days study; for Creatinine / SGOT / SGPT: serum
Protocol: Experimental animals: Thirty six Swiss-albino adult male mice (body weight range 20 ± 5 gm) were purchased from the Department of Pharmacy, Jahangirnagar University, Bangladesh. Mice were housed in a 12 h day night cycle (light on at 7 am and off at 7 pm) providing bench light of 350 lux, at 25 ± 2 °C temperature and 55 ± 10% humidity. Mice were reared in the cages (580 × 375 × 190 mm), supplied with commercially available food pellet [Rodent diet, ICDDRB, Bangladesh] and drinking water ad libitum. Body weight of each mouse was measured twice every day and other physical changes recorded.
Animal sacrifice, blood and organs collection: Twenty four hours following the last treatment and test, the mice were kept in fasting overnight. Then, they were anaesthetized with intraperitoneal injection of sodium pentobarbital (35 mg/kbw) [Phenobarbital, Incepta Pharmaceuticals, Bangladesh] and sacrificed as shown in Table 9
Blood was collected immediately, centrifuged at 1000 rpm, collected plasma and serum were preserved at –80 °C for biochemical study (SGPT, SGOT and Creatinine). Biochemical investigations were carried out in an auto analyzer (Photometer 5010 V5+, Robert Riely, Berlin, Germany) using Sigma Aldrich (Saint Louis, MO, USA) reagent kit. The mice model preliminary toxicity study was approved by the Biosafety, Biosecurity and Ethical Committee [Approval Number: BBEC-JU/M2019(12)1] of Jahangirnagar University, Savar, Dhaka, Bangladesh. Statistical analysis was conducted through SPSS using Satterthwaite’s method for equality of variances.

SMILES: O=C(O[C@@H]1Cc2c(O)cc(O)cc2O[C@@H]1c1cc(O)c(O)c(O)c1)c1cc(O)c(O)c(O)c1 [EGCG, epigallocatechin gallate]
- m (exponent defining the shape of the dose–effect curve) (A2780 cell line [1]): 0.94
- IC50 (A2780 cell line [1]): 10.3 µM
- m (exponent defining the shape of the dose–effect curve) (A2780^cisR cell line [2]): 0.93
- IC50 (A2780^cisR cell line [2]): 8.9 µM
- m (exponent defining the shape of the dose–effect curve) (Caco-2 cell line): 1.32
- IC50 (Caco-2 cell line): 108 µM
- m (exponent defining the shape of the dose–effect curve) (HT-29 cell line [3]): 0.39
- IC50 (HT-29 cell line [3]): 3.67 µM

SMILES: COc1cc(/C=C/C(=O)CC(=O)/C=C/c2ccc(O)c(OC)c2)ccc1O [Curcumin, curcumin]
- IC50 (A2780 cell line [1]; Homo sapiens): 8.63 µM
- m (exponent defining the shape of the dose–effect curve) (A2780 cell line [1]): 1.25
- IC50 (A2780^cisR cell line [2]; Homo sapiens, A2780cisR): 16.7 µM
- m (exponent defining the shape of the dose–effect curve) (A2780^cisR cell line [2]): 1.56
- IC50 (Caco-2 cell line; Homo sapiens): 21.9 µM
- m (exponent defining the shape of the dose–effect curve) (Caco-2 cell line): 1.08
- IC50 (HT-29 cell line [3]; Homo sapiens): 16.6 µM
- m (exponent defining the shape of the dose–effect curve) (HT-29 cell line [3]): 1.25

SMILES: Oc1cccc2cccnc12 [8-Hydroxyquinoline]
- Antitumor activity [4]: significant antitumor activity

SMILES: [O-]c1cccc2cccnc12.[O-]c1cccc2cccnc12.[Pd+2] [NH3, [Bis(1,8-quinolato)palladium (II)]]
- times greater activity than cisplatin (A2780^ZDO473R): 80 times
- times greater activity than cisplatin (A2780^cisR): 90 times
- times greater activity than cisplatin (A2780): 10 times
- times greater cytotoxicity than cisplatin (Hela): around 10 times
- times greater cytotoxicity than cisplatin (MCF-7): around 65 times
- Change in Expression: Actin, cytoplasmic 1 (A2780 cell line [5]; spot 6): Downregulated
- Fold change: Actin, cytoplasmic 1 (A2780 cell line [5]; spot 6, Downregulated): 4.8
- Change in Expression: Vimentin (A2780 cell line [5]; spot 12): Downregulated
- Fold Change: Vimentin (A2780 cell line [5]; spot 12, Downregulated): 1.63
- Change in Expression: 60 kDa heat shock protein, mitochondrial (A2780 cell line [5]; spot 13): Downregulated
- Fold Change: 60 kDa heat shock protein, mitochondrial (A2780 cell line [5]; spot 13, Downregulated): 3.23
- Change in Expression: Endoplasmin (A2780 cell line [5]; spot 18): Downregulated
- Fold Change: Endoplasmin (A2780 cell line [5]; spot 18, Downregulated): 4.56
- Change in Expression: 78 kDa glucose-regulated protein (A2780 cell line [5]; spot 45): Downregulated
- Fold Change: 78 kDa glucose-regulated protein (A2780 cell line [5]; spot 45, Downregulated): 2.00
- Change in Expression: Polyubiquitin-B (A2780 cell line [5]; spot 118): Downregulated
- Fold Change: Polyubiquitin-B (A2780 cell line [5]; spot 118, Downregulated): 11.39
- Change in Expression: Histone H3.3 (A2780 cell line [5]; spot 155): Downregulated
- Fold Change: Histone H3.3 (A2780 cell line [5]; spot 155, Downregulated): 6.63
- Change in Expression: Nucleoside Diphosphate kinase B (HT-29 cell line [6]; spot Hn70): Downregulated
- Fold Change: Nucleoside Diphosphate kinase B (HT-29 cell line [6]; spot Hn70, Downregulated): 2.14
- Change in Expression: Annexin A1 (HT-29 cell line [6]; spot Hn89): Downregulated
- Fold Change: Annexin A1 (HT-29 cell line [6]; spot Hn89, Downregulated): 1.85
- Change in Expression: Histone H4 (HT-29 cell line [6]; spot Hn119): Downregulated
- Fold Change: Histone H4 (HT-29 cell line [6]; spot Hn119, Downregulated): 1.91
- Change in Expression: Actin, cytoplasmic 1 (A2780^cisR cell line [7]; spot 1): Downregulated
- Fold change: Actin, cytoplasmic 1 (A2780^cisR cell line [7]; spot 1, Downregulated): 1.51
- Change in Expression: 40S ribosomal protein SA (A2780^cisR cell line [7]; spot Cn9): Downregulated
- Fold change: 40S ribosomal protein SA (A2780^cisR cell line [7]; spot Cn9, Downregulated): 2.98
- Change in Expression: Heat shock cognate 71 kDa protein (A2780^cisR cell line [7]; spot Cn16): Downregulated
- Fold change: Heat shock cognate 71 kDa protein (A2780^cisR cell line [7]; spot Cn16, Downregulated): 1.69
- Fold change: Keratin, type II cytoskeletal 1 (A2780^cisR cell line [7]; spot Cn23, Upregulated): 2.47
- Change in Expression: Elongation factor Tu, mitochondrial (A2780^cisR cell line [7]; spot Cn34): Downregulated
- Fold change: Elongation factor Tu, mitochondrial (A2780^cisR cell line [7]; spot Cn34, Downregulated): 7.86
- Change in Expression: Citrate synthase, mitochondrial (A2780^cisR cell line [7]; spot Cn41): Downregulated
- Fold change: Citrate synthase, mitochondrial (A2780^cisR cell line [7]; spot Cn41, Downregulated): 2.93
- Change in Expression: Transitional endoplasmic reticulum ATPase (A2780^cisR cell line [7]; spot Cn56): Downregulated
- Fold change: Transitional endoplasmic reticulum ATPase (A2780^cisR cell line [7]; spot Cn56, Downregulated): 3.87
- Change in Expression: Cofilin-1 (A2780^cisR cell line [7]; spot Cn69): Downregulated
- Fold change: Cofilin-1 (A2780^cisR cell line [7]; spot Cn69, Downregulated): 2.27
- Change in Expression: Actin, cytoplasmic 1 (A2780^cisR cell line [7]; spot Cn79): Downregulated
- Fold change: Actin, cytoplasmic 1 (A2780^cisR cell line [7]; spot Cn79, Downregulated): 2.79
- Change in mean body weight of mice ([8]; both lower (2.5 mg/kg) and higher (5 mg/kg) doses, vs control groups): Decrease in body weight is also significant
- Toxicity compared to cisplatin ([8]; both lower (2.5 mg/kg) and higher doses (5 mg/kg), twenty days): less toxic
- Survival of mice till the end of the experiment ([8]; higher dose 5 mg/kg): only one mouse died
- Survival of mice till the end of the experiment ([8]; lower dose 2.5 mg/kg): All mice were alive
- Creatinine ([8]; 2.5 mg/kg): 0.9 ± 0.2 mg/dL
- SGOT ([8]; 2.5 mg/kg): 53 ± 4 IU/L
- SGPT ([8]; 2.5 mg/kg): 45 ± 3 IU/L
- Creatinine ([8]; 5 mg/kg): 0.7 ± 0.2 mg/dL
- SGOT ([8]; 5 mg/kg): 59 ± 5 IU/L
- SGPT ([8]; 5 mg/kg): 48 ± 4 IU/L
- m (exponent defining the shape of the dose–effect curve) (A2780 cell line [1]): 1.97
- IC50 (A2780 cell line [1]): 0.18 µM
- m (exponent defining the shape of the dose–effect curve) (A2780^cisR cell line [2]): 2.05
- IC50 (A2780^cisR cell line [2]): 0.23 µM
- m (exponent defining the shape of the dose–effect curve) (Caco-2 cell line): 1.96
- IC50 (Caco-2 cell line): 0.56 µM
- m (exponent defining the shape of the dose–effect curve) (HT-29 cell line [3]): 2.06
- IC50 (HT-29 cell line [3]): 0.38 µM
